logD data for 8 compounds are collected here from ChEMBL document CHEMBL4359832, “Fragment-Based Discovery of Novel Potent Sepiapterin Reductase Inhibitors” (J Med Chem, 2019).

The nature of the data set: physchem. The settings on record: buffer, pH 7.4.
Turning to `CC1Cc2ccccc2N1C(=O)c1c(O)cc(Cl)cc1Cl` (stereo not drawn), the logD was 3.5.

For `O=C(c1c(O)cc(Cl)cc1Cl)N1CCCC2(CCC2)C1`, the logD came out at 3.7.

`COc1cc(Cl)cc(Cl)c1C(=O)N1CCC2(CCC2)C1` showed a logD of 4.

`O=C(c1ncc(Cl)cc1O)N1CCC2(CCC2)C1` came in with a logD of 4.9.

`O=C(c1c(O)cc(Cl)cc1Cl)N1CCC(Cc2ccccc2)C1` (stereo not drawn) gave a logD of 3.8.

For the compound `O=C(c1c(O)cncc1Cl)N1CCC2(CCC2)C1`, the logD turned out to be 1.2.

Compound `O=C(c1c(O)cc(Cl)cc1Cl)N1CCC(c2cccnc2)C1` (racemic) gave a log distribution coefficient (logD) of 1.7.

For `Cn1cc(C2CCN(C(=O)c3c(O)cc(Cl)cc3Cl)C2)cn1` (racemic), the logD came out at 1.6.

By logD is commonly meant the decadic logarithm of the distribution of all forms, ionised or not, between an organic phase and buffer at a given pH. The low end stands for a more hydrophilic compound, the high end for a more lipophilic compound.
